# From patent EP0198605A1, “Prophylaxis of pharmacotherapy of liver disorders” (TEIJIN LIMITED, priority 1985, dated 1986)
# Legend:
# [1] = system: hepatic necrocytosis induced by carbon tetrachloride; experiment: Hepatic necrocytosis induced by carbon tetrachloride (in vivo), serum GOT and GPT; parameters: species or system SD male rats; conditions: for Enzyme Activity GOT (U/L) / Enzyme Activity GPT (U/L): 10 µg/kg, 6 administrations, CCl4 0.5 ml/kg i.p.
# Description: In the evaluation tests, 6 weeks old SD male rats were used. […] The rats were freely fed or supplied with a solid feed and drinking water.
# Carbon tetrachloride (CC14) was diluted with an olive oil and was peritoneally injected in each rat at a dosage of 0.5 ml/kg. To the control group, only CC14 diluted with the olive oil and a 5% gum arabic solution containing no active ingredient were administered. Furthermore, only the olive oil but no CC14 was administered to the olive oil injection group in the Tables.
# The methincyanine compounds listed in Tables 4 to 6 were administered as follows. Methincyanine compounds were diluted 100 times with dextrose dissolved in 5% gum arabic solutions. The administration schedules were such that the methiocyanine compounds were administered 6 times in total from 5 days before the CC14 injection to the day of the injection.
# Blood was sampled from the orbital veniplex of the rat and was allowed to stand at room temperature for one hour. The blood sample was then centrifugally separated at 2800 rpm for 10 minutes. The resultant supernatant was used as a serum sample.
# The determination of GOT and GPT in the serum sample was carried out by using a determination kit (available from Boeklinger-Yamanouchi Co.) and the results were recorded in an automatic analyzer (available from FLEXIGEM Co.).
# [2] = system: hepatic disorders induced by D-galactosamine; experiment: Hepatic disorders induced by D-galactosamine in rats (serum GOT, GPT, bilirubin, complement value); type: in vivo, Wister male rats; conditions: DSCG i.p. 1 mg/kg, GalN 250 mg/kg i.p., serum two days after GalN
# Description: In the evaluation tests, 8 to 9 weeks old Wister male rats were used. Five rats were used in each test group. The rats were given standard chow and water ad libitum.
# D-Galactosamine hydrochloride (GalN) was dissolved in sterilized physiological saline and the pH thereof was adjusted to 7. The resultant solution was peritoneally administered to each rat at a dosage of 250 mg/kg. To one control group, only GalN was injected, and physiological saline was administered to the other control group instead of pionin. Furthermore, only physiological saline but no GaIN was injected to the physiological saline administration group.
# The pionin was administered as follows. It is diluted 10, 100, and 1000 times with dextrose and these diluted powders were dissolved in saline. All drugs were intravenously or orally administered at doses of 0.1, 0.5, 1, and 10 pg/kg. The administration was carried out from five days before to the day after the GaIN injection.
# The rats were killed two days after the injection of GalN and blood was collected. The blood samples were allowed to stand at room temprature for one hour and serum was then centrifugally separated at 2500 rpm for 10 minutes.
# The determination of GOT and GPT in the serum samples was carried out according to a modification of the Reitman-Framkel method [see Amir. J. Clin. Pothil. 28, 56 (1957) and J. Clin. Invest. 34, 131 (1955)], the determination of bilirubin was carried out according to a modification of Jendrassik-Grof method [see Clinical Chemistry, 19, 984-993 (1973)], and the determination of the complement value was carried out according to the Mayer method (see Experimental Immunochemistry, 2, 133-240, 1961).
# The results are shown in Table 2 (i.e., intravenous administration of pionin) and Table 3 (i.e., oral administration of pionin). Disodium cromoglycate (i.e., DSCG) was used as a control.
# [3] = system: hepatic disorders induced by D-galactosamine; experiment: as above; type: in vivo, Wister male rats; conditions: DSCG i.p. 1 mg/kg, GalN 250 mg/kg i.p., serum two days after GalN; remark: listed apart in the source
compound,measurement,setting,value
"CCCCCCCCCCN1C(C)=CSC1=Cc1scc(C)[n+]1CCCC [Compound of Example 8, 2-[2-(3-decyl-4-methyl-4-thiazolin-2-ylidene)methyl]-3-butyl-4-methylthiazolinium iodide]",Enzyme Activity GOT (U/L),"[1]; Table 5, oral",310 ± 68 U/L
same,Enzyme Activity GPT (U/L),"[1]; Table 5, oral",99 ± 27 U/L
"CCCCCCCCCCCCN1C(C)=CSC1=Cc1scc(C)[n+]1CCCC [Compound of Example 1, 2-[2-(3-dodecyl-4-methyl-4-thiazolin-2-ylidene)methyl]-3-butyl-4-methyl thiazolinium iodide]",Enzyme Activity GOT (U/L),"[1]; Table 6, oral",627 ± 92 U/L
same,Enzyme Activity GPT (U/L),"[1]; Table 6, oral",198 ± 37 U/L
same,inhibiting liver necrocytosis induced by CCl4 (result in words),"[1]; in vivo, summary of Tables 4 to 6",strong inhibiting activities against liver necrocytosis induced by CC14 when compared with pionin
"O=C(O)c1cc(=O)c2c(OCC(O)COc3cccc4oc(C(=O)O)cc(=O)c34)cccc2o1 [DSCG, Disodium cromoglycate, reference compound]",Enzyme activity GPT (K.U.),[2]; Table 2 experiment,220 ± 20 K.U.
same,Bilirubin,[2]; Table 3 experiment,0.21 mg/dL
same,Enzyme activity GOT (K.U.),[2]; Table 3 experiment,480 ± 50 K.U.
same,Bilirubin,[3]; Table 2 experiment,0.29 mg/dL
same,Complement value (%),[3]; Table 2 experiment,88.4%
same,Enzyme activity GOT (K.U.),[3]; Table 2 experiment,400 ± 42 K.U.
same,Complement value (%),[3]; Table 3 experiment,80.4%
same,Enzyme activity GPT (K.U.),[3]; Table 3 experiment,230 ± 33 K.U.
"CCCCCCCCCCCCN1C(C)=CSC1=Cc1scc(C)[n+]1CC [Compound of Example 3, 2-[2-(3-dodecyl-4-methyl-4-thiazolin-2-ylidene)methyl]-3-ethyl-4-methyl thiazolinium iodide]",Enzyme Activity GOT (U/L),"[1]; Table 5, oral",435 ± 67 U/L
same,Enzyme Activity GPT (U/L),"[1]; Table 5, oral",107 ± 18 U/L
"CCCCCCC[n+]1cc(C)sc1C=C1SC=C(C)N1CCCC [Compound of Example 4, 2-[2-(3-butyl-4-methyl-4-thiazolin-2-ylidene)methyl]-3-heptyl-5-methyl thiazolinium iodide]",Enzyme Activity GOT (U/L),"[1]; Table 5, oral",386 ± 50 U/L
same,Enzyme Activity GPT (U/L),"[1]; Table 5, oral",118 ± 21 U/L
"CCCCCCC[n+]1c(C=C2SC=C(C)N2CCCC)sc(C)c1C [Compound of Example 5, 2-[2-(3-butyl-4-methyl-4-thiazolin-2-ylidene)methyl]-3-heptyl-4,5-dimethyl thiazolinium iodide]",Enzyme Activity GOT (U/L),"[1]; Table 5, oral",393 ± 59 U/L
same,Enzyme Activity GPT (U/L),"[1]; Table 5, oral",135 ± 29 U/L
